The record followed here is PMC2669215, “SVOP Is a Nucleotide Binding Protein” (PLoS ONE, 2009).

The target of test [1] is T1, SVOP-FLAG (Rattus norvegicus, UniProt Q9Z2I7).
T1 construct: full length (548 residues), C-terminal FLAG tag (DYKDDDK) kept; expressed in HEK293, purified on anti-FLAG M2 gel
T1 sequence (Q9Z2I7 1-548): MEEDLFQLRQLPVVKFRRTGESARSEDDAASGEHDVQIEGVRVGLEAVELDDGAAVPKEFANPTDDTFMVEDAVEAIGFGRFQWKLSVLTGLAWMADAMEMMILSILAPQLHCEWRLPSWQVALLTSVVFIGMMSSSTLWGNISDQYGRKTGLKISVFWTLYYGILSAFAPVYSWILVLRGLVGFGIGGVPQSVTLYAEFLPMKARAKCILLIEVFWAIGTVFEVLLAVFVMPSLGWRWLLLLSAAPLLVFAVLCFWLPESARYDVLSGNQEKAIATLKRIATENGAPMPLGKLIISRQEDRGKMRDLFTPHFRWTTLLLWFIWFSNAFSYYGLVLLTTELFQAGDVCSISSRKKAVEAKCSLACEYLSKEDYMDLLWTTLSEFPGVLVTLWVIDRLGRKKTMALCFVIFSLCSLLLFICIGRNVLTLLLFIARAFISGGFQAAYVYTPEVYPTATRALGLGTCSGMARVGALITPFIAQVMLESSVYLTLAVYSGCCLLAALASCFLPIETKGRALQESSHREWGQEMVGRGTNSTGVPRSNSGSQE
Put plainly: competition with 8-azido-ATP[γ] biotin photoaffinity labeling, western blot. The format is binding. The note with it: read-out: half maximum inhibition concentration. On the technique in general: Immunoblotting shows a protein as a band on a membrane.

Test [2] concerns the target T1, SVOP-FLAG. Described as above. The format is binding. The conditions noted are these: 100 µM 8-azido-ATP[γ] biotin, pH 7.4, on ice.

Regarding `Nc1ncnc2c1ncn2[C@@H]1O[C@H](COP(=O)(O)OP(=O)(O)OP(=O)(O)O)[C@@H](O)[C@H]1O` [ATP], the IC50 at SVOP-FLAG [1] was ~750 µM.

With `Nc1ccn([C@@H]2O[C@H](COP(=O)(O)OP(=O)(O)OP(=O)(O)O)[C@@H](O)[C@H]2O)c(=O)n1` [CTP], the “decrease of labeling at 1 mM” value at SVOP-FLAG [2] is “TTP and CTP produced the least inhibition”. For `Nc1nc2c(ncn2[C@@H]2O[C@H](COP(=O)(O)OP(=O)(O)OP(=O)(O)O)[C@@H](O)[C@H]2O)c(=O)[nH]1` [GTP], the “decrease of labeling at 1 mM” value at SVOP-FLAG [2] is “ATP, GTP and NAD displayed the strongest inhibition”. `NC(=O)c1ccc[n+]([C@@H]2O[C@H](COP(=O)(O)OP(=O)(O)OC[C@H]3O[C@@H](n4cnc5c(N)ncnc54)[C@H](O)[C@@H]3O)[C@@H](O)[C@H]2O)c1` [NAD]: on SVOP-FLAG [1], the IC50 was ~250 µM.

For the compound `Cc1cn([C@H]2C[C@H](O)[C@@H](COP(=O)(O)OP(=O)(O)OP(=O)(O)O)O2)c(=O)[nH]c1=O` [TTP], the “decrease of labeling at 1 mM” value on SVOP-FLAG [2] was “TTP and CTP produced the least inhibition”.
